Measurements: patent publication US20100173873A1, “TREATMENT OF METASTASIZED TUMORS” (Novartis Vaccines and Diagnostics, Inc., priority 2005, published 2010)

Key:
[1] = tested on: VEGF production in MV4;11 cells; assay: VEGF ELISA on MV4;11 culture supernatants; assay type: cell-based; details: Homo sapiens; MV4;11, 48 hours; read-out: EC50 inhibition of VEGF production
pERK in MV4;11 tumors = assay: Target modulation in vivo, pERK in MV4;11 tumors; set-up: species or system SCID-NOD mice; details: 10 mg/kg/d p.o.
Procedure: […]. […] For in vivo target modulation analyses, resected tumors were flash frozen, pulverized and stored at −70° C. prior to lysis with 150 mM NaCl, 1.5 mM MgCl2, 50 mM Hepes, pH 7.5, 10% glycerol, 1.0% Triton X-100, 1 mM EGTA, 50 mM NaF, 1 mM Na3VO4, 2 mM Pefabloc (Roche), and complete protease inhibitor cocktail (Roche). Protein content of the lysates was determined using the BCA assay (Bio-Rad, Hercules, Calif.). Western blot analysis for pERK was performed with a mouse antibody to pERK (1:1000, Cell Signaling, Beverly, Mass.) and incubated at 4° C. overnight. Total ERK level was evaluated by re-probing with antibody against total ERK (Cell Signaling). The membranes were then incubated for 1 hour at RT with 1:5000 horseradish peroxidase-conjugated anti-rabbit IgG (Jackson Immunoresearch, West Grove, Pa.). […] FLT3 or STAT5 phosphorylation was measured by probing with an anti-phosphotyrosine antibody (anti-pFLT3 antibody from Cell Signaling, and anti-pSTAT5 antibody from Upstate). Proteins were detected using enhanced chemiluminescence (ECL; Amersham Biosciences, Buckinghamshire, England) and visualized after exposure to Kodak film. Scanning densitometry was performed to quantify band intensities. […]
[…]. […] Tumors that were harvested after selected time points, were homogenized and analyzed for pFLT3 and pSTAT5 levels by IP/Western blot. […]

RS4;11 tumors = assay: Subcutaneous RS4;11 xenograft model; assay type: in vivo, SCID-NOD mice; details: RS4;11 s.c., 10-150 mg/kg/d p.o.
Procedure: . Animals received sterile rodent chow and water ad libitum and were housed in sterile filter-top cages with 12 hour light/dark cycles. All experiments were under the guidelines of the Association for Assessment and Accreditation of Laboratory Animal Care International.
Cells (5×10^6 cells/mouse) were reconstituted with 50% Matrigel (Becton Dickinson) and implanted s.c. into the right flank of SCID-NOD mice. Treatments were initiated when tumors were 200-1000 mm^3, as outlined in specific study designs. Mice were randomly assigned into cohorts (typically 10 mice/group for efficacy studies and 3-5 mice/group for pharmacodynamic (PD) studies). Compound 1 was administered as a solution via oral gavage. […] . […] Response rates were defined as complete responses CR (no palpable tumor) or partial responses PR (50-99% shrinkage) compared to tumor volume at treatment initiation.

pSTAT5 in MV4;11 cells = pSTAT5 in MV4;11 cells (flow cytometry, Western blot); details: Homo sapiens, MV4-11, 3 h, read-out: Inhibition of pSTAT5

CN1CCN(c2ccc3nc(-c4c(N)c5c(F)cccc5[nH]c4=O)[nH]c3c2)CC1 [Compound 1, 4-Amino-5-fluoro-3-[6-(4-methylpiperazin-1-yl)-1H-benzimidazol-2-yl]quinolin-2(1H)-one]
EC50 [1]: 1 to 10 nM
pERK levels in tumors (pERK in MV4;11 tumors): Decreases in pERK levels
Tumor regressions (RS4;11 tumors): no regressions were observed
inhibition at 0.1 µM (pSTAT5 in MV4;11 cells): > 50%
